This is an account of results in US20020169128A1, “Erythropoietin ameliorates chemotherapy-induced toxicity in vivo” (priority 2001, published 2002).

For data set [1] the following is noted: doses of up to 1,500 Units/kg for three to four weeks; cited from earlier work.
The test system of the next data set is C57B16 female mice. As to the kind of experiment: Pulmonary function (Penh) by whole body plethysmography after graded methacholine challenge in mice treated with EPO and/or bleomycin. Type of data set: in vivo. The conditions noted are these: treated twice a week for two weeks, i.p., FIG. 1. As to the method:
C57B16 female mice between 7 and 12 weeks old weighing approximately 20 grams were treated with varying doses of EPO alone and in combination with bleomycin. Animals were treated twice a week with placebo, EPO alone (5-40 μg/mouse, i.p.), bleomycin alone (0.25-0.75 μg/mouse, i.p.), or EPO and bleomycin in combination. […] At these time points, pulmonary function was measured using a full body plethysmograph (Buxco, Niskayuna, N.Y.). This is a noninvasive method utilizing a clear plastic animal chamber fitted with two pneumotachs and a transducer which interface with a computer. Pulmonary resistance and dynamic compliance is evaluated by an analyzer which measures flow and pressure readings at equivalent lung volumes during inspiration and expiration (“Iso-Volumetric Method”). Artifacts from animal movement or atypical breaths (e.g. from “sniffing”) are ignored by computer analysis using parameters that can be adjusted as appropriate for the tidal volume and inspiratory time of the individual animal. The method of whole body plethysmography has been studied and found to be a valid index of pulmonary function in the mouse (Hamelmann et al., Am. J. Respir. Crit. Care Med. 156)3 Pt1) 776-75 (1997). […] A similar pattern of the Penh values was observed when pulmonary functions were performed at four weeks of treatment (see FIG. 2).

Turning to erythropoietin [EPO], the “toxic effects due to EPO itself” value in data set [1] is “without toxic effects”. In addition, the “pulmonary function (Penh), EPO given in the absence of bleomycin” value with C57B16 female mice (graded methacholine challenge) is “slight enhancement of pulmonary function”. As for bleomycin [reference compound], in the data set on C57B16 female mice (graded (0 to 48 mg/ml) methacholine challenge), the “worsening in Penh values compared with control animals” value was determined as 2.6 fold.
